# From US11447786B2, “Systems and methods for cellular reprogramming of a plant cell” (PIONEER HI-BRED INTERNATIONAL, INC., priority 2017, dated 2022)
# “Also recorded” adds a separate entry of the source.
# B1: ZmWUS2-hexa histidine-tag protein: Purified recombinant Zea mays WUSCHEL2 hexahistidine-tagged protein (SEQ ID NO:2) from baculovirus-infected SF9 insect cells (protein)
# chain: MAANAGGGGAGGGSGSGSVAAPAVCRPSGSRWTPTPEQIRMLKELYYGCGIRSPSSEQIQRITAMLRQHGKIEGKNVFYWFQNHKARERQKRRLTSLDVNVPAAGAADATTSQLGVLSLSSPPPSGAAPPSPTLGFYAAGNGGGSAVLLDTSSDWGSSGAAMATETCFLQDYMGVTDTGSSSQWPRFSSSDTIMAAAAARAATTRAPETLPLFPTCGDDGGSGSSSYLPFWGAASTTAGATSSVAIQQQHQLQEQYSFYSNSNSTQLAGTGNQDVSATAAAAAALELSLSSWCSPYPAAGSMGHHHHHH
# modifications: hexahistidine tag
# B2: GAMMA ZEIN-ZmWUS2-hexa histidine-tag protein: Gamma-zein cell penetrating peptide WUSCHEL hexahistidine-tagged translational fusion protein (SEQ ID NO:47) (protein)
# chain: VRLPPPVRLPPPLVRPPPLHHHHHHMAANAGGGGAGGGSGSGSVAAPAVCRPSGSRWTPTPEQIRMLKELYYGCGIRSPSSEQIQRITAMLRQHGKIEGKNVFYWFQNHKARERQKRRLTSLDVNVPAAGAADATTSQLGVLSLSSPPPSGAAPPSPTLGFYAAGNGGGSAVLLDTSSDWGSSGAAMATETCFLQDYMGVTDTGSSSQWPRFSSSDTIMAAAAARAATTRAPETLPLFPTCGDDGGSGSSSYLPFWGAASTTAGATSSVAIQQQHQLQEQYSFYSNSNSTQLAGTGNQDVSATAAAAAALELSLSSWCSPYPAAGSMGHHHHHH
# modifications: WUS-HISTAG-GZCPP protein sequence
# Experiments:
# Format in all cases: cell-based, maize
# [1] = tested on: ATCC40520 microspores; experiment: Microspore embryogenesis in ATCC40520 microspore culture with hemin, MCS/ELS phenotype scoring; settings: 1 μM hemin
# Procedure: Following microspore isolation, ATCC40520 microspores (see U.S. Pat. No. 5,602,310 incorporated herein by reference in its entirety) were cultured in a petri dish in a 9% sucrose induction medium as a control or a 9% sucrose induction medium supplemented with a 1 μM final concentration of hemin (Sigma-Aldrich, catalog # H9039) at 28° C. under dark conditions.
# (§1) Following microspore isolation, ATCC40520 microspores and EH, anelite inbred, that is known to be less responsive relative to the ATCC40520 genotype, were each individually cultured in a petri dish in a 9% sucrose induction medium as a control or a 9% sucrose induction medium supplemented with a 1 μM final concentration of hemin at 28° C. under dark conditions.
# (§2) Microspore phenotypes were scored for each of ATCC40520 and EH after 21 days of treatment (+/− hemin). A multicellular structure (MCS) phenotype was scored when a unicellular-derived structure resulting from randomly oriented divisions within a surrounding, intact exine wall was observed. If the surrounding exine was ruptured and a release of cells was observed, then the response was scored as a proliferative embryo-like structure (ELS).
# [2] = tested on: ATCC40520 microspores; experiment: Gene expression analysis of embryo-like structures from control and hemin-treated ATCC40520 cultures; settings: 1 μM hemin, 8 days in vitro culture, vs control
# Procedure: Following microspore isolation, ATCC40520 microspores (see U.S. Pat. No. 5,602,310 incorporated herein by reference in its entirety) were cultured in a petri dish in a 9% sucrose induction medium as a control or a 9% sucrose induction medium supplemented with a 1 μM final concentration of hemin (Sigma-Aldrich, catalog # H9039) at 28° C. under dark conditions. After 8 days of in vitro tissue culture, four biological replicates of proliferating embryo-like structures were sampled from each of the control and the hemin-treated ATCC40520 tissue cultures for embryogenesis induction and processed for gene expression analysis using methods known in the art (data not shown).
# [3] = tested on: inbred EH microspores; experiment: Microspore embryogenesis in inbred EH microspore culture with hemin, MCS/ELS phenotype scoring; settings: 1 μM hemin
# Procedure: as §1, §2
# [4] = tested on: isolated microspores; experiment: Microspore electroporation with ZmWUS2-hexa histidine-tag protein; settings: in combination with electroporation, vs no protein and no electroporation
# Procedure: A Neon® Transfection System (Thermo Fisher Scientific catalog #MPK5000) and Neon® kit (Thermo Fisher Scientific catalog #MPK10025) is used per the manufacturer's instructions. The ex situ ZmWUS2-hexa histidine-tag protein treatment is prepared by mixing 12.5 μL of ZmWUS2-hexa histidine-tag protein (SEQ ID NO:2; 10 μg total, 0.8 μg/μL stock) with 12.5 μL Lipofectamin 3000 followed by 30 minutes incubation at room temperature. Sucrose is added to the resuspension buffer (buffer R) to a 0.4 M final concentration and filter sterilized. Isolated microspores are resuspended in a 2% (V/V) dimethyl sulfoxide (DMSO)/9% suscrose induction medium solution and incubated for 15 minutes at room temperatures, the microspores are pelleted, and the supernatant is removed. The microspores are washed three times with phosphate buffered saline (PBS; Gibco™ 10010023), resuspended in Electrolytic Buffer E (Thermo Fisher Scientific catalog #MPK5000) and mixed with the ZmWUS2-hexa histidine-tag protein/Lipofectamine 3000 solution followed by room temperature incubation for 10 minutes and then incubation on ice for 10 minutes. DMSO-mediated electroporation was used to increase ZmWUS2-hexa histidine-tag protein uptake into isolated microspores through multiple pulse conditions. […]
# [5] = tested on: microspores isolated from a F1 hybrid tassel of an EHxGR genetic cross; experiment: Protein transfection of microspores with ZmWUS2-hexa histidine-tag protein with or without Pro-Ject reagent
# Procedure: Transfection reagent preparation using the cationic lipid based Pro-Ject™ transfection reagent (Thermo Fisher Scientific catalog #89850) was performed by adding 250 μL of methanol to the tube containing the dried transfection reagent, vortexing for 30 seconds at top speed, and dispensing 10 μL of Pro-ject™ plus methanol to 1.5 mL Eppendorf tubes. The transfection reagent was evaporated from the tubes within a chemical fume hood for 4 hours drying time at room temperature and the tubes were stored the tubes at −20° C. until use. Upon use, 100 μL of isolation medium containing 50 ng of the purified ZmWUS2-hexa histidine-tag protein was added to each tube and 900 μL microspore culture medium was dispensed into each transfection tube to re-hydrate the transfection reagent and encapsulate the protein. The 1 mL volume of this solution was combined with a 1 mL volume of microspores isolated from a F1 hybrid tassel of an EHxGR genetic cross. The microspores were suspended in isolation medium and each 2 mL volume was dispensed into a well of a 24 well microtiter plate (Lab Safety Supply catalog #11L794). The isolation medium was further supplemented with bovine serum albumin, protease inhibitor and L-glutathione reduced, with or without the cationic lipid-based Pro-Ject™ transfection reagent, and with or with the ZmWUS2-hexa histidine-tag protein treatments (ZmWUS2-hexa histidine-tag protein buffer as a control for comparison to the ZmWUS2-hexa histidine-tag protein). Each plate was sealed with parafilm and incubated at 28° C. under dark conditions. […] After 18 days, all cells were collected and rinsed using 70 μm Fisherbrand™ cell strainer and evaluated for the activation of cellular reprogramming and the induction of microspore embryogenesis. Microspore viability was scored by counting plasmolyzed, collapsed cells (i.e. “non-viable”) and translucent, spherical cells corresponding to the original state (i.e. “viable”).
# [6] = tested on: inbred EH microspores; experiment: Ex situ treatment of isolated microspores with purified ZmWUS2-hexa histidine-tag protein
# Procedure: WUSCHEL protein expression and purification was performed using a heterologous expression system expressing a plasmid encoding a ZmWUS2-hexa histidine-tag (SEQ ID NO:1) sequence transformed into DH10Bac cells (Thermo Fisher Scientific catalog #10361012) to generate baculoviruses. Baculovirus-infected SF9 insect cells (Thermo Fisher Scientific catalog #12552014) were incubated for 72 hours at 27° C. The infected insect cells were harvested by centrifugation. Purification of the recombinant ZmWUS2-hexa histidine-tag protein (SEQ ID NO:2) was performed using commercially available protein purification methods Following microspore isolation from inbred EH, ZmWUS2-hexa histidine-tag protein treatments were performed for each culture by combining 505 μL of a 4% sucrose induction media, 37.5 μL of molecular grade bovine serum albumin (BSA; 20 mg/ml) (Sigma-Aldrich catalog # B8667) and 7.5 μL of protease inhibitor (Sigma-Aldrich catalog # P9599) and with 250 μL of the purified recombinant ZmWUS2-hexa histidine-tag protein. After gently mixing, the solution was filter sterilized within a sterile environment using a 0.2 μm filter (Pall Corporation catalog #4612). Optionally, an isolation medium was buffered with L-glutathione reduced (Sigma-Aldrich catalog #G4251). […]
# [7] = tested on: isolated microspores; experiment: Ex situ treatment of isolated microspores with GAMMA ZEIN-ZmWUS2-hexa histidine-tag protein; settings: vs microspores cultured without the protein
# Procedure: GAMMA ZEIN-ZmWUS2-hexa histidine-tag protein expression and purification is performed using a heterologous expression system expressing a plasmid encoding a GAMMA ZEIN-ZmWUS2-hexa histidine-tag (SEQ ID NO:46) sequence transformed into DH10Bac cells to generate baculoviruses. Baculovirus-infected SF9 insect cells are incubated for 72 hours at 27° C. The infected insect cells are harvested by centrifugation. Purification of the recombinant GAMMA ZEIN-ZmWUS2-hexa histidine-tag protein (SEQ ID NO:47) is performed as described in EXAMPLE 3.
# [8] = 21 days, vs control EH microspores
molecule,measurement,setting,value
hemin,cellular proliferation and development of embryo-like structures (ELS),"[1]; 9% sucrose induction medium, 21 days, vs control",increased cellular proliferation and the development of embryo-like structures (ELS)
same,quality of the embryo-like structures (proportion of spherical vs non-spherical embryoids),[1]; 21 days,improved the quality of the embryo-like structures
same,number of ELS in responsive cultures,[1]; after 21 days of treatment (+/- hemin),approximately doubled
same,expression of embryogenic transcripts,[2],increased expression of embryogenic transcripts
same,expression of pollen associated transcripts,[2],decreased expression of pollen associated transcripts
same,cellular proliferation in responsive cultures,"[3]; 21 days of culture, vs control",increased cellular proliferation
same,percentage of microspores scored with the ELS phenotype,[3]; [8],increased
same,percentage of microspores scored with the MCS phenotype,[3]; [8],increased
B1,microspore responsiveness and embryogenesis induction,[4],improved microspore responsiveness and embryogenesis induction
same,improvement in cell viability,"[5]; 72 hours post-isolation, 4% sucrose liquid induction medium, on average",5.1 fold
same,cell proliferation / activation of cellular reprogramming and induction of microspore embryogenesis,"[5]; combined with cationic lipid-based Pro-Ject transfection reagent, 18 days",cell proliferation was seen
same,cell viability after 18 days of culture,"[5]; without transfection reagent, vs control without protein",fewer cells were viable in the control treatment
same,microspore responsiveness and embryogenesis induction,"[6]; recalcitrant elite inbred, 4% sucrose induction media, vs culture without protein",improved microspore responsiveness and embryogenesis induction
same,embryoid development (morphology),[6]; wild type microspores treated with purified protein,revealed a suspensor with root hairs; also recorded: A microspore-derived embryo with a developed radicle and root hairs was observed
B2,microspore responsiveness and embryogenesis induction,[7],improved microspore responsiveness and embryogenesis induction
